Like-named read-outs stand apart in the source and are kept apart here.
What was measured:
5-ht5a = 5-ht5a (Homo sapiens, UniProt P47898); experiment: PDSP screening affinity 5-ht5a; type: binding; conditions: 5-ht5a affinity
human 5-HT2C receptor [1] = target: T1, human 5-HT2C receptor (Homo sapiens, UniProt P28335); experiment: h5-HT2C affinity, antagonist radioligand [3H]mesulergine; type: binding
T1 sequence (P28335 33-458): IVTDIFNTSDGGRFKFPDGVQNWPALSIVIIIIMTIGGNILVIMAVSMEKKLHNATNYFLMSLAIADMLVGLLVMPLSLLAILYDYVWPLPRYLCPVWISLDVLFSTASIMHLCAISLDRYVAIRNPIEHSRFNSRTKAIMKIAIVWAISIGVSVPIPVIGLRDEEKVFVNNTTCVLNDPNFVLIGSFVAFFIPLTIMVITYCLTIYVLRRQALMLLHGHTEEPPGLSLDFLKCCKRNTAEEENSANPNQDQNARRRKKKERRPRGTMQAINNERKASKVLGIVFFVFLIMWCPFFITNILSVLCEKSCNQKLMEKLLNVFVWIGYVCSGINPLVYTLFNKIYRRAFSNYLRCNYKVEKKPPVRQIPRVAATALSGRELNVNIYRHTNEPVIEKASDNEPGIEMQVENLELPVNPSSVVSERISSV

5-HT2A receptor [2] = target: T2, 5-HT2A receptor (Homo sapiens, UniProt P28223); experiment: h5-HT2A affinity, agonist radioligand [125I]DOI; type: binding
T2 sequence (P28223 whole entry): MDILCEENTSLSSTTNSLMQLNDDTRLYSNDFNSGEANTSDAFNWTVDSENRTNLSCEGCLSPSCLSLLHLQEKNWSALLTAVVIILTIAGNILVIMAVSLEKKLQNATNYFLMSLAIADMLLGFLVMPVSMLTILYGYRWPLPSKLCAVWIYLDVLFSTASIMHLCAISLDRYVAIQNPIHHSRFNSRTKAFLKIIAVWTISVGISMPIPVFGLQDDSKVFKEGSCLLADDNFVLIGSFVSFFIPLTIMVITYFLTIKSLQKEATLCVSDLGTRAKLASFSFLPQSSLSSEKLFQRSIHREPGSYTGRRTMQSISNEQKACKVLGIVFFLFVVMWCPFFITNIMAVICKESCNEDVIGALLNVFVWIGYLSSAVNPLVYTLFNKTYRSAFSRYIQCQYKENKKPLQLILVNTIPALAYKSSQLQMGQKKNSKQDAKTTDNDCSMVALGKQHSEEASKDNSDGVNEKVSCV

5-HT6 = 5-HT6 (Homo sapiens, UniProt P50406); experiment: PDSP screening affinity 5-HT6; type: binding
Sequence of 5-HT6 (P50406 whole entry): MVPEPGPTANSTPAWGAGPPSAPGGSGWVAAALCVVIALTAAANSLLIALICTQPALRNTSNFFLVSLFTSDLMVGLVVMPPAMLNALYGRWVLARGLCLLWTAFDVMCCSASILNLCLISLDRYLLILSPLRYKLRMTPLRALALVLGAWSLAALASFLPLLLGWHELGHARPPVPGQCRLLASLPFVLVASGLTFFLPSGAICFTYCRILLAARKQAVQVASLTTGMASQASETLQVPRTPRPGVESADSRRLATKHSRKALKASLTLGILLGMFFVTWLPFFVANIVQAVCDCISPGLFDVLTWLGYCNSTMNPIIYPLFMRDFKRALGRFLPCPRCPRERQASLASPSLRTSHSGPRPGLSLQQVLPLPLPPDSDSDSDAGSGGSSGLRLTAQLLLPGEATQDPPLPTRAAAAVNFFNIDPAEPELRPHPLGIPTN

5-HT7 = 5-HT7 (Homo sapiens, UniProt P34969); experiment: PDSP screening affinity 5-HT7; type: binding
Sequence of 5-HT7 (P34969 whole entry): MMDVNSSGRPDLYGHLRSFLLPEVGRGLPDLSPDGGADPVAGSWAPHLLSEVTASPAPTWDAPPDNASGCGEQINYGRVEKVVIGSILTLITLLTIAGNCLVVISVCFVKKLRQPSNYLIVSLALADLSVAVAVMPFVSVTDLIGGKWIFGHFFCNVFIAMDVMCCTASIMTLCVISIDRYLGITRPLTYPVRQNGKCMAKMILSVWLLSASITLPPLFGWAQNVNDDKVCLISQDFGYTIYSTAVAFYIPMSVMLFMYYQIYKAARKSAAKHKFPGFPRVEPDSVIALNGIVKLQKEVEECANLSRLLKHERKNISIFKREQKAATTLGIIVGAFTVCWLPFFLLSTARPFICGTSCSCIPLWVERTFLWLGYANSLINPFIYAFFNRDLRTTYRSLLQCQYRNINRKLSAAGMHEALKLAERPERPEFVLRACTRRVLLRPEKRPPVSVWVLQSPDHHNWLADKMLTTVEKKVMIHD

5-HT2A receptor [3] = target: T2, 5-HT2A receptor; experiment: h5-HT2A affinity, antagonist radioligand [3H]ketanserin; type: binding
5-HT3 = target: T3, 5-HT3 (Homo sapiens, UniProt P46098); experiment: PDSP screening affinity 5-HT3; type: binding
T3 sequence (P46098 24-478): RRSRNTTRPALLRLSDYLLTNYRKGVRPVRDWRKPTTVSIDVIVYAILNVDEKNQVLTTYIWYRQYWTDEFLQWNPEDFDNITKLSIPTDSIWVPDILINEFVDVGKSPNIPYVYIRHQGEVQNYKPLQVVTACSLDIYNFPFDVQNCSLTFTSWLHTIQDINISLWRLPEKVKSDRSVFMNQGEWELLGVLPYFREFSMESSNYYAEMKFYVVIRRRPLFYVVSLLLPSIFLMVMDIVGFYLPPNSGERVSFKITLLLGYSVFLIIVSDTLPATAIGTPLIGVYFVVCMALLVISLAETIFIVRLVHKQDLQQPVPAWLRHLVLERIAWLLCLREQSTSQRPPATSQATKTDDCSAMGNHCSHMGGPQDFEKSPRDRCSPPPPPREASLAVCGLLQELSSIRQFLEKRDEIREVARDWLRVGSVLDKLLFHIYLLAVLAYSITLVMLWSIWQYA

human 5-HT2C receptor [4] = target: T1, human 5-HT2C receptor; experiment: h5-HT2C affinity, agonist radioligand [125I]DOI; type: binding
r5-HT2A = r5-HT2A (Rattus norvegicus, UniProt P14842); experiment: Ca2+ mobilization assay; type: cell-based; conditions: for EC50: r5-HT2A EC50, Ca2+ mobilization; for Emax: read-out: r5-HT2A Emax, percentage of the maximum response to 5-HT
Sequence of r5-HT2A (P14842 whole entry): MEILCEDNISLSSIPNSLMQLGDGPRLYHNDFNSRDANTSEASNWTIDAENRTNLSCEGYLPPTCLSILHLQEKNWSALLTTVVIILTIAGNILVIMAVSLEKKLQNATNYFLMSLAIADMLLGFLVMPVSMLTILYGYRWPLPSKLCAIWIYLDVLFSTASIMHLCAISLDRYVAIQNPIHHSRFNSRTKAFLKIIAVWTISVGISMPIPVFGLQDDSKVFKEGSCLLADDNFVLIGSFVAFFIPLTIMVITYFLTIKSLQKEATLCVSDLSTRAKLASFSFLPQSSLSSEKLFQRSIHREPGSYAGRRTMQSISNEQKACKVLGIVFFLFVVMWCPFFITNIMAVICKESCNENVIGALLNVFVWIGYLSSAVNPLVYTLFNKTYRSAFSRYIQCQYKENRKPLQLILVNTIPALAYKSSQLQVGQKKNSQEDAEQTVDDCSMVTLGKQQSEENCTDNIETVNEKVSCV

h5-HT2A = h5-HT2A (Homo sapiens, UniProt P28223); experiment: Ca2+ mobilization assay; type: cell-based; conditions: for Emax: HEK293, read-out: h5-HT2A Emax, percentage of the maximum response to 5-HT
Sequence of h5-HT2A (P28223 whole entry): as the sequence (P28223 whole entry) above

h5-HT2B = h5-HT2B (Homo sapiens, UniProt P41595); experiment: Ca2+ mobilization assay; type: cell-based; conditions: for Emax: HEK293, read-out: h5-HT2B Emax
Sequence of h5-HT2B (P41595 whole entry): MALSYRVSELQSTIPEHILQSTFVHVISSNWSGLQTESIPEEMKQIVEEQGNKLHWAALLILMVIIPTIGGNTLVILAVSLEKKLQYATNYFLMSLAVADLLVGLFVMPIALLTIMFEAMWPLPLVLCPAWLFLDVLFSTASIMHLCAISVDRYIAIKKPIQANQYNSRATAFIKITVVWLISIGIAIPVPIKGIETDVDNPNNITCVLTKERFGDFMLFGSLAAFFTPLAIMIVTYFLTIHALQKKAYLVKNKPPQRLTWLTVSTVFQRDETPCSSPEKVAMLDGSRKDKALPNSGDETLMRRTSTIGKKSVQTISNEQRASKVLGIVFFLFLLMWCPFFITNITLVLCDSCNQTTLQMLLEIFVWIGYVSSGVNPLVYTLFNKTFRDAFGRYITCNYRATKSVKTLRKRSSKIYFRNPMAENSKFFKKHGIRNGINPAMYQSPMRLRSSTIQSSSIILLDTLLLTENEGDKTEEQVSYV

h5-HT2C = target: T4, h5-HT2C (Homo sapiens, UniProt P28335); experiment: Ca2+ mobilization assay; type: cell-based; conditions: for Emax: HEK293, read-out: h5HT2C Emax; for EC50: h5HT2C EC50, Ca2+ mobilization
T4 sequence (P28335 33-458): T1 sequence (P28335 33-458)

5-HT1D = 5-HT1D (Homo sapiens, UniProt P28221); experiment: PDSP screening affinity 5-HT1D; type: binding
Sequence of 5-HT1D (P28221 whole entry): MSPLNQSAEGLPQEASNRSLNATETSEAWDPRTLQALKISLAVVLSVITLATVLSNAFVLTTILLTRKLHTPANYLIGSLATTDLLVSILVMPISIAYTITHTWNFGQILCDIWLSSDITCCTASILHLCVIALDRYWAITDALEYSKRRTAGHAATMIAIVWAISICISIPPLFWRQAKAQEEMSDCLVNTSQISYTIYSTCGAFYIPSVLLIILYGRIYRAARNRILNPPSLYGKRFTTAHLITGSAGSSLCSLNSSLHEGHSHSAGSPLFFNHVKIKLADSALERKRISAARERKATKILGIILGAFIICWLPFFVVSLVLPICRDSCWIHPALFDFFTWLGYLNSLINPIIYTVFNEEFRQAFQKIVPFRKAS

Male C57BL/6J mice = experiment: Mouse head twitch response; conditions: for max counts: HTR counts; for ED50: Mus musculus, sc, read-out: ED50 mg/kg (95% CI), mouse head twitch; for magnitude of peak effect × vehicle / maximally effective dose: mouse head twitch
r5-HT2C = target: T5, r5-HT2C (Rattus norvegicus, UniProt P08909); experiment: Ca2+ mobilization assay; type: cell-based; conditions: for Emax: read-out: r5-HT2C Emax
T5 sequence (P08909 33-460): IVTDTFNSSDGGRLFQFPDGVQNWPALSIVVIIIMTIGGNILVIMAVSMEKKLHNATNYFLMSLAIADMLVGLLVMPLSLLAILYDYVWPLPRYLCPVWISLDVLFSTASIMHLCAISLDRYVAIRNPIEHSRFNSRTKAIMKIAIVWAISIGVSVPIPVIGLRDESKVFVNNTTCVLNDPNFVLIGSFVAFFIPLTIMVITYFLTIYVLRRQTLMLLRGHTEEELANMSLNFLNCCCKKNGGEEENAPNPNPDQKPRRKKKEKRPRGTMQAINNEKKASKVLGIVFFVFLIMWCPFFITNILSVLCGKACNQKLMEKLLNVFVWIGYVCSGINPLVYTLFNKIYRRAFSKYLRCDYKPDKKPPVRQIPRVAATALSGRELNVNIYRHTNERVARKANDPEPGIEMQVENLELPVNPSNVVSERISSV

5-ht1e = 5-ht1e (Homo sapiens, UniProt P28566); experiment: PDSP screening affinity 5-ht1e; type: binding
Sequence of 5-ht1e (P28566 whole entry): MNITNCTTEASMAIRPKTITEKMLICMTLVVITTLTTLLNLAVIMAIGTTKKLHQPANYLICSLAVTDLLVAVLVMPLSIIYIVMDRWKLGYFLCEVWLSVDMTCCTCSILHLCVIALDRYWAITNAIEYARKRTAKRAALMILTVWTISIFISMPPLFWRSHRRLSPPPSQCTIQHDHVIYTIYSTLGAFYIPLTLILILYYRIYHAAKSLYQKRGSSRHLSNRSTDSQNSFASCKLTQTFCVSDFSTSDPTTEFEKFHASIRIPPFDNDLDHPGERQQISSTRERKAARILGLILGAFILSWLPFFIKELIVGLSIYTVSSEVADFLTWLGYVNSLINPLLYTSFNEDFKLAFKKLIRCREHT

5-HT2B = 5-HT2B (Homo sapiens, UniProt P41595); experiment: PDSP screening affinity 5-HT2B; type: binding
Sequence of 5-HT2B (P41595 whole entry): as the sequence (P41595 whole entry) above

5-HT1A = target: T6, 5-HT1A (Homo sapiens, UniProt P08908); experiment: PDSP screening affinity 5-HT1A; type: binding; conditions: 5-HT1A affinity
T6 sequence (P08908 1-422): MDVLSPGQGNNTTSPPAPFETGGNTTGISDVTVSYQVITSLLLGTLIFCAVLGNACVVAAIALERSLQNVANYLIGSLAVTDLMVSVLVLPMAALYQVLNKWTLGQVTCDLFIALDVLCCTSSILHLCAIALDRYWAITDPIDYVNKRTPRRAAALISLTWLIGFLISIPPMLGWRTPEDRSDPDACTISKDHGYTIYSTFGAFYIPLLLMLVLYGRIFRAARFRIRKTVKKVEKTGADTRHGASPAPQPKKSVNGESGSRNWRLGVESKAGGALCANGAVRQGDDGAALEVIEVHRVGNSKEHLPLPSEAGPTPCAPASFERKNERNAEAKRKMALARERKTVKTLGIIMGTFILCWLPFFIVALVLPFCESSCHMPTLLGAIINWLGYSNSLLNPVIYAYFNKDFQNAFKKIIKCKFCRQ

5-HT1B = 5-HT1B (Homo sapiens, UniProt P28222); experiment: PDSP screening affinity 5-HT1B; type: binding
Sequence of 5-HT1B (P28222 whole entry): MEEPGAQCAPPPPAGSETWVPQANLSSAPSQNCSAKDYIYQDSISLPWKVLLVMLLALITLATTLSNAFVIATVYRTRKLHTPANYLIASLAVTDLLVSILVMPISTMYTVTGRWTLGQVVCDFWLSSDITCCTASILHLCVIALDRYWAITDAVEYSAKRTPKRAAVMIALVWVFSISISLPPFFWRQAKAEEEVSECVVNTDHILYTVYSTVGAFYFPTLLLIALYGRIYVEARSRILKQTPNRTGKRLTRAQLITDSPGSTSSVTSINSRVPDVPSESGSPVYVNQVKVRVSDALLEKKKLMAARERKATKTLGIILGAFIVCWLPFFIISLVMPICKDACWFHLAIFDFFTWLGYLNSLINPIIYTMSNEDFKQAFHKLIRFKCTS

[5] = h5-HT2B EC50, Ca2+ mobilization
[6] = r5-HT2C EC50, Ca2+ mobilization

Sequence of 5-ht5a (P47898 whole entry): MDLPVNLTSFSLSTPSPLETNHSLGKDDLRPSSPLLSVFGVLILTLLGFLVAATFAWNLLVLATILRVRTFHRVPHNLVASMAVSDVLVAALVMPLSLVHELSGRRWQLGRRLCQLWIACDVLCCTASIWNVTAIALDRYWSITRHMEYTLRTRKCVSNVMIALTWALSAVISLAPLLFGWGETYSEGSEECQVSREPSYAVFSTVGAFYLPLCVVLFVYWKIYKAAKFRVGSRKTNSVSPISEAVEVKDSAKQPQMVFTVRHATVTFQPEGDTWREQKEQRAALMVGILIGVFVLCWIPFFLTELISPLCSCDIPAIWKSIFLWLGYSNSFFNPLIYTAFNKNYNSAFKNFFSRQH

Row | Compound | Ki (5-ht5a) | Ki (human 5-HT2C receptor [1]) | Ki (5-HT2A receptor [2]) | Ki (5-HT6; 5-HT6 affinity) | Ki (5-HT2A receptor [3]) | Ki (5-HT3) | Ki (human 5-HT2C receptor [4]) | EC50 (r5-HT2A) | Emax (r5-HT2A) | EC50 (h5-HT2A) | Emax (h5-HT2A) | Emax (h5-HT2B) | EC50 (h5-HT2B; [5]) | Emax (h5-HT2C) | EC50 (h5-HT2C) | Ki (5-HT1D) | EC50 (r5-HT2C; [6]) | Emax (r5-HT2C) | Ki (5-ht1e) | Ki (5-HT1A) | also measured
1 | COc1ccc2[nH]cc(CCNCc3cccc(I)c3)c2c1 [Compound 5i, N-(3-Iodobenzyl)-2-(5-methoxy-1H-indol-3-yl)ethan-1-amine] | 1.54 µM | 0.00646 µM | 0.00062 µM | 0.027 µM | 0.00347 µM | > 10 µM | 0.00105 µM | 0.12 µM | 73.4 ± 1.4% | 0.016 µM | 79 ± 1.1% | 31 ± 2% | 0.043 µM | 94 ± 5% | 0.445 µM | 0.199 µM | 0.313 µM | 110 ± 3% | > 10 µM | 0.122 µM | h5-HT2A Ki (5-HT2A receptor [2]; [125I]DOI): subnanomolar affinity; Ki (5-HT6; 5-HT6 pKi ± SEM): 0.0263 µM; Ki (5-HT7; 5-HT7 pKi ± SEM): 0.0219 µM; max counts (Male C57BL/6J mice; SC): 20.2; ED50 (Male C57BL/6J mice): 7.77 mg/kg; magnitude of peak effect × vehicle (Male C57BL/6J mice; SC): 3.4 × vehicle; maximally effective dose (Male C57BL/6J mice; SC): 30 mg/kg; EC50 (r5-HT2C; r5-HT2C pEC50 ± SEM, Ca2+ mobilization): 0.309 µM; Ki (5-HT2B; 5-HT2B affinity): 0.00076 µM; 5-HT1B pKi ± SEM (5-HT1B): 5.53 ± 0.05; Ki (5-HT1B; read-out: 5-HT1B affinity): 2.96 µM
2 | COc1cc(CCNCc2ccccc2Br)c(OC)cc1I [Compound 4c, N-(2-Bromobenzyl)-2-(4-iodo-2,5-dimethoxyphenyl)ethan-1-amine] | 2.29 µM | 0.00871 µM | 0.00038 µM | 0.257 µM | 0.00234 µM | > 10 µM | 0.00102 µM | 0.036 µM | 65.6 ± 1.6% | 0.042 µM | 88 ± 1.5% | 83 ± 3% | 0.134 µM | 87 ± 5% | 0.0576 µM | 0.423 µM | 0.105 µM | 104 ± 1% | > 10 µM | 1.16 µM | Ki (5-HT7; 5-HT7 affinity): 2.55 µM; EC50 (h5-HT2B; h5-HT2B pEC50 ± SEM, Ca2+ mobilization, NA = not active, Emax ≤ 15%): 0.151 µM; max counts (Male C57BL/6J mice; SC): 23.2; ED50 (Male C57BL/6J mice): 2.31 mg/kg; activity in the HTR assay (active / inactive) (Male C57BL/6J mice; SC, doses up to 30 mg/kg): active; magnitude of peak effect × vehicle (Male C57BL/6J mice; SC): 3.0 × vehicle; maximally effective dose (Male C57BL/6J mice; SC): 10 mg/kg; Ki (5-HT2B; 5-HT2B affinity): 0.02 µM; Ki (5-HT1B; 5-HT1B affinity): > 10 µM
3 | COc1ccc2[nH]cc(CCNCc3cccc(SC)c3)c2c1 [Compound 5l, N-(3-Methylthiobenzyl)-2-(5-methoxy-1H-indol-3-yl)ethan-1-amine] | 0.841 µM | 0.0132 µM | 0.00309 µM | 0.0097 µM | 0.00891 µM | > 10 µM | 0.00209 µM | 0.12 µM | 32 ± 0.7% | 0.032 µM | 46.9 ± 0.8% |  |  | 60 ± 4% | 0.283 µM | 0.659 µM | 0.205 µM | 101 ± 2% | > 10 µM | 0.127 µM | Ki (5-HT7; 5-HT7 affinity): 0.136 µM; Ki (5-HT2B; 5-HT2B pKi ± SEM): 0.00407 µM; Ki (5-HT1B; 5-HT1B affinity): > 10 µM
